This is an account of results in US12377194B2, “JAB1 inhibitory compositions for ossification and methods related thereto” (Emory University, priority 2011, dated 2025).

In one assay the test system is Harlan athymic rats. In words: Collagen disc implantation with Jab1-blockers and BMP-2 in rat ectopic model. The assay is classed as in vivo. Set-up: Average (Xray score): scale not given here. The settings on record: 100 ul, chest implant, 4 weeks. An excerpt:
Harlan athymic rats about 5-6 weeks of age were chest implanted with a collagen disc and doses of G8 and R13 in combination with BMP-2. After 4 weeks the rats were sacrificed and evaluated for bone growth.

A further assay concerns Mouse C2C12 cells. In words: Alkaline phosphatase (ALP) assay, cell based screen of JAB1 blockers with BMP-2. The settings on record: cell based assay (FIG. 1-4). The protocol: Mouse C2C12 cells and Dulbecco's modified Eagle's medium (DMEM) were purchased from ATCC (Manassas, VA). The non-heat inactivated fetal bovine serum (FBS) was purchased from HyClone Laboratories, Inc. (Logan, UT). The C2C12 cells at passages 4 to 7 were subcultured in T-75 cm2 flasks in DMEM supplemented with 10% FBS at 37° C. in 5% CO2 with humidification. When the flasks reached 80% confluence, the cells were trypsinized and seeded in triplicate at 200,000 cells/well in a 6-well plate for quantitative real-time RT-PCR and alkaline phosphatase (ALP) assays or at 50,000 cells/well in a 12-well plate for the dual-luciferase reporter assay.
The C2C12 cells were plated at 200,000 cells/well in 6-well plates and grown overnight in DMEM containing 10% FBS. On day 2, the culture medium was replaced with DMEM containing 2% FBS and the cells were treated with various concentrations of the JAB1-interacting compound for 24 hours. On day 3, the medium was replaced with fresh DMEM containing 2% FBS and the cells were treated with 50 ng/ml of BMP-2 for 72 hours. The cells were washed with phosphate-buffered saline (PBS) and lysed by addition of lysis buffer (10 mM Tris-HCl pH 8.0, 1 mM MgCl2 and 0.5% Triton X-100). The cell lysates were centrifuged for 5 minutes at 13,000×g. The supernatant was removed and the aliquots were assayed for ALP activity and protein amount. The ALP activity was measured in triplicate using an ALP assay kit (Sigma-Aldrich, St. Louis, MO) in microtiter plates. The protein amount was determined with Bio-Rad protein assay reagent (Bio-Rad, Hercules, CA) using bovine serum albumin (BSA) as a standard. The ALP activity (nmoles of p-nitrophenol per ml) was normalized to the protein amount (nmoles of p-nitrophenol per μg).

Where [1] appears, read: compound dose 2 mM + BMP-2 1.5 ug.
[2] abbreviates: compound dose 4 mM + BMP-2 1.5 ug.
Setting [3] is: compound dose 6 mM + BMP-2 1.5 ug.
[4] abbreviates: compound dose 8 mM + BMP-2 1.5 ug.
Where [5] appears, read: compound dose 11 mM + BMP-2 1.5 ug.
Setting [6] is: compound dose 15 mM + BMP-2 1.5 ug.
Setting [7] is: compound dose 19 mM + BMP-2 1.5 ug.

In the case of `COc1cc(OC)c(C=C2C(=O)Nc3cc(Cl)ccc32)c(OC)c1` [#SRJ-R13, 6-chloro-3-(2,4,6-trimethoxybenzylidene)indolin-2-one], the “Average (Xray score)” value in the assay on Harlan athymic rats (setting [1]) stood at 1.75; in the assay on Harlan athymic rats (setting [2]), 2.25. The “Results (bone made, n of 4)” value with Harlan athymic rats (setting [1]) is recorded as “Bone made (3 of 4)”; with Harlan athymic rats (setting [2]), “Bone made (4 of 4)”; with Harlan athymic rats (setting [3]), “No bone (0 of 4)”; in the assay with Harlan athymic rats (setting [4]), “No bone (0 of 4)”; in the assay on Harlan athymic rats (setting [5]) it was “No bone (0 of 4)”; in the assay with Harlan athymic rats (setting [6]), “No bone (0 of 4)”. The “Results (bone made, n of 4)” value with Harlan athymic rats (setting [7]) is given as “No bone (0 of 4)”. In the assay on Mouse C2C12 cells, the ALP activity result was “improving ALP activity”.
Take `COc1cc2nccc(Oc3ccc(Br)c(C)c3)c2cc1OC` [#SRJ-G8, 4-(4-bromo-3-methylphenoxy)-6,7-dimethoxyquinoline]: the “Average (Xray score)” value with Harlan athymic rats (setting [1]) turned out to be 3.5; with Harlan athymic rats (setting [2]), 3.75; in the assay with Harlan athymic rats (setting [3]), 3; in the assay with Harlan athymic rats (setting [4]), 4; with Harlan athymic rats (setting [5]), 1.25; in the assay on Harlan athymic rats (setting [6]), 1.75. In addition, the “Average (Xray score)” value in the assay with Harlan athymic rats (setting [7]) was determined as 0.75. Further, the “Results (bone made, n of 4)” value with Harlan athymic rats (setting [1]) is “Bone made (4 of 4)”; in the assay with Harlan athymic rats (setting [2]), “Bone made (4 of 4)”; with Harlan athymic rats (setting [3]), “Bone made (3 of 4)”; in the assay on Harlan athymic rats (setting [4]), “Bone made (4 of 4)”; in the assay with Harlan athymic rats (setting [5]), “Bone made (1 of 4)”; in the assay on Harlan athymic rats (setting [6]), “Bone made (2 of 4)”. In the assay on Harlan athymic rats (setting [7]), the “Results (bone made, n of 4)” value is “Bone made (1 of 4)”. In the assay on Mouse C2C12 cells, the ALP activity result was “improving ALP activity”.
For `COc1cc(Nc2nccc(Nc3ccc(F)cc3)n2)cc(OC)c1` [P5, N^2-(3,5-dimethoxyphenyl)-N^4-(4-fluorophenyl)pyrimidine-2,4-diamine], in the assay with Mouse C2C12 cells, the ALP activity result was “improving ALP activity”.
